Assay results: the NIST ThermoML archive (doi:10.1021/acs.jced.7b00024)

Experiment: mean ionic activity coefficient (dimensionless); mn = molality of the nth substance listed, in mol/kg
Details: 298.15 K, 100 kPa, Liquid, Potentiometry

[Cl-].[Cs+] [cesium chloride] + O
Details | mean ionic activity coefficient
m1 = 0.0085 | 0.905
m1 = 0.01 | 0.898
m1 = 0.028 | 0.843
m1 = 0.0297 | 0.84
m1 = 0.0574 | 0.794
m1 = 0.0706 | 0.778
m1 = 0.0969 | 0.753
m1 = 0.1497 | 0.715
m1 = 0.1937 | 0.692
m1 = 0.2985 | 0.652
m1 = 0.3873 | 0.628
m1 = 0.5981 | 0.588
m1 = 0.6802 | 0.577
m1 = 0.9033 | 0.552
m1 = 1.073 | 0.538
m1 = 1.504 | 0.513
m1 = 1.56 | 0.51
m1 = 2.106 | 0.492
m1 = 2.152 | 0.491
m1 = 2.947 | 0.477
m1 = 3.008 | 0.476
m1 = 3.944 | 0.472
m1 = 4.002 | 0.471
